Test results: PubChem BioAssay (NCI)
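48-hour exposure; five concentrations; linearly interpolated endpoints. The concentration for full growth arrest is given as TGI.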

Legend:
Assay in all cases: growth of human tumour cells (NCI), 48 h
M14 melanoma = test system: M14 melanoma
TK-10 renal = test system: TK-10 renal
U251 CNS = test system: U251 CNS
SK-MEL-28 melanoma = test system: SK-MEL-28 melanoma
LOX IMVI melanoma = test system: LOX IMVI melanoma
UACC-62 melanoma = test system: UACC-62 melanoma
A498 renal = test system: A498 renal
HOP-62 NSCLC = test system: HOP-62 NSCLC
MCF7 breast = test system: MCF7 breast
DU-145 prostate = test system: DU-145 prostate
HCT-116 colon = test system: HCT-116 colon

Structure (SMILES)	TGI (M14 melanoma) [µM]	TGI (TK-10 renal) [µM]	TGI (U251 CNS) [µM]	TGI (SK-MEL-28 melanoma) [µM]	TGI (LOX IMVI melanoma) [µM]	TGI (UACC-62 melanoma) [µM]	TGI (A498 renal) [µM]	TGI (HOP-62 NSCLC) [µM]	TGI (MCF7 breast) [µM]	TGI (DU-145 prostate) [µM]	TGI (HCT-116 colon) [µM]
Cc1[nH]n(-c2ccccc2)c(=S)c1C(=O)c1ccccc1	93.7	94.4	> 100	> 100	> 100	> 100	44.9				
CC(C)CCNC(=O)c1ccc(CNC(=O)/C=C/c2ccc(-c3ccccc3[N+](=O)[O-])o2)cc1	> 100		> 100	> 100	> 100	> 100		60.8	> 100	> 100	> 100
CC[n+]1[b-](C(C)(C)C)n(/N=C(\C)C(C)(C)C)[b-](C(C)(C)C)[n+]1CC	> 100	> 100	> 100	> 100	> 100	> 100		> 100	> 100		> 100
N#Cc1c(N2CCOCC2)ncn(-c2ccccc2)c1=O	> 100		> 100	> 100	> 100	> 100	> 100	> 100	> 100	> 100	> 100
Cc1ccc2c(c1)NC(=O)C(N=[N+]=[N-])(c1ccccc1)C2=O (stereo unspecified)	33	> 100	74.6	> 100	37.7	61.3	> 100	> 100			79.4
CCC12C=CCN3CC[C@]4(C(=C(C(=O)OC)[C@@H]1Nc1ccn(C5OC(COC(C)=O)C(OC(C)=O)C5OC(C)=O)c(=O)n1)Nc1ccccc14)C32 (stereo partly specified)	8.51	10.1	7.69	8.43	7.81	6.94	10.7	8.83			7.37
CCOc1ccc(N=Cc2cc(OC)c(OC)c(OC)c2)cc1	> 100	> 100	> 100	> 100	> 100	> 100	> 100	> 100			> 100
CCCCc1ccc(Nc2nc(Cl)c3[nH]cnc3n2)cc1	41.5	50.6			26.6	31.9	55.4	27.8	37.9	61.8	29.9
CCNC1CC(C(C)(C)NCC)CC=C1C (stereo unspecified)	> 100	> 100	> 100	> 100	> 100	> 100		> 100	> 100	> 100	> 100
Cc1ccc(N2C(=O)/C(=c3\s/c(=C(/N)O)c(=N)n3-c3ccccc3)SC2=S)cc1		> 100	> 100	> 100		> 100	> 100	> 100			> 100
C(/COc1cccnc1)=N\NC1=NCCN1	> 100	> 100	> 100	> 100	> 100	> 100	> 100	> 100			> 100
CN1c2ccccc2C2c3c(O)ccc(O)c3C=C([N+](=O)[O-])C21 (stereo unspecified)	1.44	23.3	4.84	11.3		2.66	5.47	5.96	0.346		0.651
CC(=O)CN=C(C)NNc1ccc([N+](=O)[O-])cc1[N+](=O)[O-]	> 100		> 100	> 100	> 100	> 100	> 100	> 100	> 100	> 100	> 100
COc1cccc(/C=N/n2c(-c3ccccc3)n[nH]c2=O)c1	> 100		> 100	> 100		> 100	> 100	63.5	> 100	> 100	> 100
CC1=CCC2(C#N)CCC1C2=O (stereo unspecified)	> 100	> 100	> 100		> 100	> 100	> 100	> 100			> 100
CC(C)(C)C1CCC2c3c([nH]c4ccccc34)C3C(=O)N(c4ccc(Br)cc4)C(=O)C3C2C1 (stereo unspecified)	> 100	42		> 100	29.2	> 100	52.3	39.5			91.9
CCCCCCCCCCCCCCCCCCNc1ccn(C2OC(CO)C(OP(=O)(O)OCC3CCC(n4ccc(N)nc4=O)O3)C2O)c(=O)n1 (stereo unspecified)	> 100	> 100	> 100	> 100	> 100	> 100		> 100		> 100	> 100
c1ccc2cc3n[se]nc3cc2c1	> 100	> 100	> 100	> 100	> 100	> 100					
Nc1nc(Cl)cc(Nc2ccc3c(c2)CCC3)n1	> 100	> 100	> 100	> 100	> 100	> 100	> 100		> 100	> 100	> 100
c1ccc(C2CC(N3CCOCC3)=Nc3ccccc3N2)cc1 (stereo unspecified)	> 100	> 100	> 100	> 100		> 100	> 100	> 100		> 100	> 100
Cc1ccc(C2SC(N)=Nc3c2c(C)nn3C(=O)c2ccncc2)cc1 (stereo unspecified)	> 10	> 10	> 10	> 10	> 10	> 10		> 10	> 10	> 10	> 10
CCC(C)(C)NC1=C(NC(C)=O)C(=O)c2ccccc2C1=O	> 75	> 75	> 75	> 75	> 75	> 75		> 75			> 75
CC(C)(C)OC(=O)C1/C(=C/CO)CN1C(=O)OC(C)(C)C (stereo unspecified)	> 100	> 100		> 100	> 100	> 100	> 100	> 100	> 100		> 100
CC(C)NC(C)Cc1ccccc1 (stereo unspecified)	> 100	> 100	> 100	> 100	> 100	> 100	> 100	> 100			> 100
